Settings: for log10 BCF / log10 biotransformation half-life (days): fish

Row | SMILES | boiling point [°C] | melting point [°C] | other results
1 | CC(=O)c1cccc([N+](=O)[O-])c1 | 202 | 81 | –
2 | C=Cc1ccc(OC)cc1 | 205 | – | –
3 | Cl.Cl.NCCc1c[nH]cn1 | – | 250 | –
4 | COc1ccccc1N | 224 | 6.2 | log10 vapour pressure (mmHg): -1.1; ready biodegradability: readily biodegradable
5 | CCCCC(CC)COP(=O)(O)OCC(CC)CCCC (stereo not given) | – | -50 | ready biodegradability: not readily biodegradable; log10 BCF: 0.64
6 | CC(=O)OCCOCCOC(C)=O | 200 | 18 | –
7 | O=C(O)CCc1c[nH]c2ccccc12 | – | 134 | –
8 | Brc1cccc(Br)c1 | 218 | -7 | log10 vapour pressure (mmHg): -0.571; log10 BCF: 2.82; log10 biotransformation half-life (days): 1.16
9 | CCC(=O)c1ccccc1 | 218 | 18.6 | log10 vapour pressure (mmHg): -0.77; ready biodegradability: readily biodegradable
10 | Cc1ccccc1NC(N)=S | – | 162 | –
11 | COc1ccc([N+](=O)[O-])cn1 | – | 108 | –
12 | CC(C)(CC(=O)O)CC(=O)O | – | 104 | –
13 | O=C(O)c1cc(=O)cc(C(=O)O)o1 | – | 262 | –
14 | COc1ccc(N(CCCC(=O)O)C(=O)c2ccc(Cl)cc2)cc1 | – | 116 | –
15 | CC1=CCC(C(C)C)=CC1 | 183 | -10 | log10 Henry constant (atm·m³/mol): -1.59; log10 vapour pressure (mmHg): 0.0362; ready biodegradability: readily biodegradable
16 | Clc1ccc(Oc2cc(Cl)c(Cl)cc2Cl)c(Cl)c1 | – | – | log10 biotransformation half-life (days): 2.02
17 | CN(C)CCO | 134 | -59 | log10 vapour pressure (mmHg): 0.502; ready biodegradability: readily biodegradable
18 | CC(Oc1ccc(Oc2ncc(C(F)(F)F)cc2Cl)cc1)C(=O)O (stereo not given) | – | 108 | –
19 | CCNC(=O)NCC | 263 | 112 | –
20 | Cc1ccc[n+]([O-])c1 | – | 39 | –
21 | CCn1c2ccccc2c2ccccc21 | – | 68 | log10 vapour pressure (mmHg): -3.66
22 | C=C1/C(=C/C=C2/CCC[C@]3(C)[C@@H]([C@H](C)CCCC(C)C)CC[C@@H]23)C[C@@H](O)C[C@@H]1O | – | 136 | –
23 | CCCSP(=O)(OCC)Oc1cnn(-c2ccc(Cl)cc2)c1 (stereo not given) | – | – | log10 vapour pressure (mmHg): -7.92
24 | COC(C)CC(OC)OC (stereo not given) | 157 | – | –
25 | NC(=O)c1c(Cl)c(Cl)c(Cl)c(Cl)c1C(=O)O | – | – | log10 BCF: 0.49
26 | CNC(=O)Oc1ccccc1OC(CCl)OC (stereo not given) | – | 80 | –

Row | SMILES | boiling point [°C] | melting point [°C] | other results
27 | O=C(O)c1ccnc2ccccc12 | – | 254 | –
28 | CC(Cl)CC(Cl)Cl (stereo not given) | 152 | – | –
29 | C=COCCCCCCCCCCCCCCCC | – | 16 | –
30 | O=P(OCCCl)(OCCCl)OCCCl | 330 | -35 | log10 vapour pressure (mmHg): -1.21; ready biodegradability: not readily biodegradable; log10 BCF: 0.11; log10 biotransformation half-life (days): -0.66
31 | Cc1cccc(C)c1NC1=NCCCS1 | – | 140 | –
32 | CCCCCCCC(=O)Oc1c(Br)cc(C#N)cc1Br | – | 45.5 | log10 Koc (L/kg): 4; log10 vapour pressure (mmHg): -5.32; ready biodegradability: readily biodegradable
33 | Cc1ccc2cccc([N+](=O)[O-])c2n1 | – | 140 | –
34 | CCCc1ccc(O)cc1 | 233 | 22 | log10 Henry constant (atm·m³/mol): -5.94; log10 vapour pressure (mmHg): -1.43
35 | Cc1ccc(O)c2ccccc12 | – | 85.8 | –
36 | N#CCI | 185 | – | –
37 | CCCCCCCCCCCC[C@H](C)O | 284 | 34 | –
38 | Nc1c(Br)cc(O)c2c1C(=O)c1ccccc1C2=O | – | – | ready biodegradability: not readily biodegradable
39 | C[C@H](N[C@H](CCc1ccccc1)C(=O)O)C(=O)N1CCC[C@H]1C(=O)O | – | 150 | –
40 | CS(=O)(=O)c1ccc2c(c1)N(CCCN1CCC(C(N)=O)CC1)c1ccccc1S2 | – | 170 | –
41 | CCCC(c1ccccc1)c1ccccc1 | 287 | 27 | –
42 | C[C@@H]1NC(=O)N[C@@H]1CCCCCC(=O)O | – | 157 | –
43 | O=C(Cl)c1ccc([N+](=O)[O-])cc1 | – | 75 | –
44 | O=C(OCc1ccccc1)c1ccccc1C(=O)OCc1ccccc1 | – | 44 | –
45 | CCCCC(C=O)CC (stereo not given) | 163 | – | log10 vapour pressure (mmHg): 0.255
46 | CCC(C)(C)CO | 136 | – | –
47 | O=C(Cl)C(F)(F)C(F)(F)C(F)(F)C(F)(F)C(F)(F)C(F)(F)C(F)(F)F | 131 | – | –
48 | OCC(O)c1ccccc1 (stereo not given) | 273 | 67.5 | –
49 | CCCCC(CC)COC(=O)Cl (stereo not given) | 207 | – | log10 vapour pressure (mmHg): -0.775
50 | CCCCCCCCCCCCCCCCCCCCCCCCCC(=O)OC | – | 63.8 | –
51 | CCCCCc1ccc(C)cc1O | – | 24 | –
52 | Brc1ccncc1 | – | 0.5 | –

Row | SMILES | boiling point [°C] | melting point [°C] | other results
53 | COc1cccc(C(=O)NN)c1 | – | 94 | –
54 | C=C(C)[C@@H]1CC[C@]2(C)CC[C@]3(C)[C@H](CC[C@@H]4[C@@]5(C)CC[C@H](O)C(C)(C)[C@@H]5CC[C@]43C)[C@@H]12 | – | 216 | –
55 | CC(=O)c1ccccc1O | 218 | 5 | –
56 | CCCNCC | 81 | – | –
57 | CC(=O)Nc1ccc(Br)cc1 | – | – | log10 Koc (L/kg): 1.95
58 | CC(C)C[N+](=O)[O-] | 140 | -76.8 | log10 vapour pressure (mmHg): 0.838
59 | CCOC(=O)Nc1ccc(NCc2ccc(F)cc2)nc1N | – | 116 | –
60 | CC(=O)CC(C)(C)C | 126 | -64 | –
61 | Nc1cccc2ccc(O)cc12 | – | 206 | –
62 | CC(C)(C)C1CCC(=O)CC1 | – | 48.5 | –
63 | CCOC(=O)C(O)(c1ccccc1)c1ccccc1 | – | 34 | –
64 | Oc1cc(O)c2c(c1)O[C@H](c1ccc(O)c(O)c1)[C@@H](O)C2 | – | – | log10 Koc (L/kg): 2.03
65 | C[C@@H](O)C(=O)c1ccccc1 | 251 | – | –
66 | Clc1cccc(-c2c(Cl)c(Cl)cc(Cl)c2Cl)c1Cl | – | – | log10 Henry constant (atm·m³/mol): -4.31; log10 vapour pressure (mmHg): -5.96
67 | Clc1cc(Cl)c(Oc2cc(Cl)c(Cl)cc2Cl)c(Cl)c1 | – | – | log10 biotransformation half-life (days): 2.01
68 | CCC(C)C(=O)NC1CCC(=O)N(CCc2ccccc2)C1=O (stereo not given) | – | 108 | –
69 | CCC1(C)CCCC1 | 122 | -144 | –
70 | CCC(C(=O)O)C(=O)O | – | 114 | –
71 | Cc1ccc([N+](=O)[O-])c(Cl)c1 | – | 24 | –
72 | Clc1cc(Cl)c2nsnc2c1Cl | – | 122 | –
73 | OCCS | 158 | – | log10 vapour pressure (mmHg): 0.244
74 | FC(F)(F)c1ccccc1Br | 168 | – | –
75 | C[C@H]1CC[C@@H]2[C@H](C1)C2(C)C | 169 | – | –
76 | O=C(O)CCCCCCCCCCCCCCCCCCC(=O)O | – | 126 | –
77 | CCCCCCCCc1ccccc1 | 264 | -36 | log10 vapour pressure (mmHg): -1.95; log10 biotransformation half-life (days): 0.22
78 | CCCCCCCC(=O)OC(=O)CCCCCCC | 282 | -1 | –

Row | SMILES | boiling point [°C] | melting point [°C] | other results
79 | FC(F)(F)C(F)(F)C(F)(F)C(F)(F)C(F)(F)C(F)(F)C(F)(F)C(F)(F)I | 160 | 20.8 | –
80 | CNc1cccc2ccccc12 | 294 | 174 | –
81 | CCCN(CCCl)c1c([N+](=O)[O-])cc(C(F)(F)F)cc1[N+](=O)[O-] | – | 42 | log10 Koc (L/kg): 3.55; log10 vapour pressure (mmHg): -4.52
82 | CCOC(=O)C1(c2ccccc2)CCN(C)CC1 | – | 270 | –
83 | CC(C)(C)[C@@H](O)[C@H](Cc1ccc(Cl)cc1Cl)n1cncn1 | – | 148 | –
84 | Cc1cc(C)c(Br)c(C)c1 | 225 | -1 | –
85 | c1cc2c3c(c1)CCCN3CCC2 | – | 40 | –
86 | COc1ccc(N)cc1N | 221 | 67.5 | –
87 | CCC(Oc1ccc(C(C)(C)CC)cc1C(C)(C)CC)C(=O)Nc1ccc(NC(=O)C(F)(F)C(F)(F)C(F)(F)F)c(O)c1 (stereo not given) | – | – | ready biodegradability: not readily biodegradable
88 | CCCCCCCC(=O)NN | – | 88 | –
89 | CC1CCCO1 (stereo not given) | 78 | – | log10 Henry constant (atm·m³/mol): -4.03; log10 vapour pressure (mmHg): 1.99
90 | CCCC(=O)Oc1c(Br)cc(C#N)cc1Br | – | – | log10 Koc (L/kg): 3.03
91 | CC(Cl)(Cl)C(Cl)Cl | 153 | – | –
92 | Cc1cccc2cc3c(ccc4ccccc43)cc12 | – | 156 | –
93 | CN1CC=C(c2ccccc2)CC1 | – | 40 | –
94 | Cc1ccccc1C#N | 205 | -13.5 | log10 vapour pressure (mmHg): -0.348
95 | NCCCCCCCCN | 225 | 52 | ready biodegradability: readily biodegradable
96 | Cc1cccc(C)c1O | 201 | 45.7 | log10 Henry constant (atm·m³/mol): -5.18; log10 vapour pressure (mmHg): -0.767; ready biodegradability: not readily biodegradable
97 | NCCS(=O)(=O)O | – | 328 | –
98 | CCCCc1ccncc1 | 209 | – | –
99 | FC(F)C(F)(F)OCC(F)(F)F | 56.2 | – | log10 vapour pressure (mmHg): 2.33
100 | CCOC(=O)NCCOc1ccc(Oc2ccccc2)cc1 | – | 53.2 | log10 Koc (L/kg): 3; log10 vapour pressure (mmHg): -8.2
101 | O=C1CCCC(=O)C1 | – | 106 | –
102 | Clc1cccc(-c2c(Cl)cc(Cl)c(Cl)c2Cl)c1Cl | – | – | log10 Henry constant (atm·m³/mol): -4.41
103 | CCCNC(C)C(=O)Nc1ccccc1C (stereo not given) | – | 37.5 | –
104 | O=C(Nc1cccc(Cl)c1)OCC#CCCl | – | 75 | log10 Koc (L/kg): 3.06; log10 vapour pressure (mmHg): -6.42; ready biodegradability: not readily biodegradable

Row | SMILES | boiling point [°C] | melting point [°C] | other results
105 | CCc1cc(C)nc(C)c1 | 188 | 97 | –
106 | O=C1C=C(c2ccccc2)CC1 | 234 | -23 | –
107 | Cc1c(C)c(C)c(O)c(C)c1C | 267 | 128 | –
108 | O=C(O)Cc1ccccc1Oc1ccc(Cl)cc1Cl | – | 112 | –
109 | CC(Br)C(Br)Br (stereo not given) | 200 | – | –
110 | Clc1cc(Cl)c(Cl)c(-c2cc(Cl)cc(Cl)c2Cl)c1 | – | – | log10 Koc (L/kg): 6.48
111 | CC(=O)Oc1cccc2cc3cccc(OC(C)=O)c3c(OC(C)=O)c12 | – | – | ready biodegradability: not readily biodegradable
112 | OCC(CO)(CCl)CCl | – | 83 | –
113 | COC(=O)C(Cl)Cl | 143 | -51.9 | log10 vapour pressure (mmHg): 0.654
114 | FC(F)(F)C(F)(F)C(F)(F)C(F)(F)N(C(F)(F)C(F)(F)C(F)(F)C(F)(F)F)C(F)(F)C(F)(F)C(F)(F)C(F)(F)F | 178 | -50 | log10 vapour pressure (mmHg): -0.258; ready biodegradability: not readily biodegradable
115 | C=C(Br)Br | 92 | – | –
116 | Nc1ccc(C(=O)O)cc1 | – | 188 | log10 Koc (L/kg): 2.5; ready biodegradability: readily biodegradable
117 | NCCO | 171 | 10.5 | log10 vapour pressure (mmHg): -0.394; ready biodegradability: readily biodegradable
118 | Clc1cc2c(cc1Cl)Oc1ccccc1O2 | – | 163 | log10 Koa: 8.5; log10 vapour pressure (mmHg): -5.53; log10 biotransformation half-life (days): 0.33
119 | O=[N+]([O-])c1ccc(Oc2ccc(N=C=S)cc2)cc1 | – | 110 | –
120 | O=C(O)COCC(=O)O | – | 148 | –
121 | O=[N+]([O-])c1ccccc1/C=C/c1ccccc1 | – | 73 | –
122 | CCOP(=S)(OCC)Oc1ccc(S(C)(=O)=O)cc1 | – | – | log10 Koc (L/kg): 2.17
123 | OCC(O)CO | 290 | 18.2 | log10 Henry constant (atm·m³/mol): -7.76; log10 vapour pressure (mmHg): -3.77; ready biodegradability: readily biodegradable
124 | CC(=O)OC/C=C(\C)CCC=C(C)C | 238 | – | log10 vapour pressure (mmHg): -1.48
125 | Cc1cc(C)cc(C(C)(C)C)c1 | 207 | -18 | –
126 | CCc1nc(N)nc(N)c1-c1ccc(Cl)cc1 | – | 234 | –
